Experimental data: the NIST ThermoML archive (doi:10.1016/j.jct.2003.12.005)
± gives the expanded uncertainty stated by the source.

Tests used:
[1] = 101.3 kPa, Liquid
[2] = xn = mol fraction of the nth substance listed; details: 101.3 kPa, Liquid

CCC(C)O (centres undefined) [butan-2-ol]
[1]
Details | mass density [kg/m3] | speed of sound [m/s] | viscosity [mPa·s]
293.15 K | 806.8 ± 0.3 | 1230 ± 2 | 3.623 ± 0.086
298.15 K | 802.7 ± 0.3 | 1212 ± 2 | 2.995 ± 0.072
303.15 K | 798.5 ± 0.3 | 1194 ± 2 | 2.493 ± 0.061

CCC(C)O (centres undefined) [butan-2-ol] + CCCCCCCC
[2]
Details | mass density, 293.15 K [kg/m3] | mass density, 298.15 K [kg/m3] | mass density, 303.15 K [kg/m3] | speed of sound, 293.15 K [m/s] | speed of sound, 298.15 K [m/s] | speed of sound, 303.15 K [m/s] | viscosity, 293.15 K [mPa·s] | viscosity, 298.15 K [mPa·s] | viscosity, 303.15 K [mPa·s]
x1 = 0.0481 | 704.6 ± 0.3 | 700.5 ± 0.4 | 696.4 ± 0.4 | 1190 ± 2 | 1169 ± 2 | 1148 ± 2 | 0.541 ± 0.015 | 0.508 ± 0.014 | 0.478 ± 0.014
x1 = 0.0974 | 707.2 ± 0.3 | 703.1 ± 0.3 | 698.9 ± 0.4 | 1187 ± 2 | 1167 ± 2 | 1146 ± 2 | 0.554 ± 0.015 | 0.519 ± 0.014 | 0.488 ± 0.014
x1 = 0.1984 | 713.3 ± 0.3 | 709.2 ± 0.3 | 704.9 ± 0.3 | 1184 ± 2 | 1163 ± 2 | 1143 ± 2 | 0.582 ± 0.016 | 0.544 ± 0.015 | 0.511 ± 0.014
x1 = 0.289 | 719.4 ± 0.3 | 715.2 ± 0.3 | 711 ± 0.3 | 1182 ± 2 | 1161 ± 2 | 1141 ± 2 | 0.624 ± 0.017 | 0.579 ± 0.016 | 0.541 ± 0.015
x1 = 0.3964 | 727.7 ± 0.3 | 723.5 ± 0.3 | 719.1 ± 0.3 | 1181 ± 2 | 1161 ± 2 | 1141 ± 2 | 0.697 ± 0.018 | 0.644 ± 0.017 | 0.599 ± 0.016
x1 = 0.4923 | 736.2 ± 0.3 | 731.9 ± 0.3 | 727.5 ± 0.3 | 1183 ± 2 | 1162 ± 2 | 1142 ± 2 | 0.78 ± 0.02 | 0.713 ± 0.019 | 0.645 ± 0.017
x1 = 0.5931 | 746.5 ± 0.3 | 742.1 ± 0.3 | 737.8 ± 0.3 | 1187 ± 2 | 1166 ± 2 | 1146 ± 2 | 0.927 ± 0.024 | 0.84 ± 0.022 | 0.761 ± 0.02
x1 = 0.6922 | 758.1 ± 0.3 | 753.8 ± 0.3 | 749.4 ± 0.3 | 1193 ± 2 | 1173 ± 2 | 1153 ± 2 | 1.162 ± 0.029 | 1.031 ± 0.026 | 0.919 ± 0.023
x1 = 0.7987 | 772.5 ± 0.3 | 768.2 ± 0.3 | 763.9 ± 0.3 | 1202 ± 2 | 1182 ± 2 | 1163 ± 2 | 1.574 ± 0.04 | 1.361 ± 0.034 | 1.191 ± 0.029
x1 = 0.8988 | 788.3 ± 0.3 | 784 ± 0.3 | 779.7 ± 0.3 | 1214 ± 2 | 1195 ± 2 | 1176 ± 2 | 2.267 ± 0.055 | 1.932 ± 0.047 | 1.662 ± 0.04
x1 = 0.9495 | 797.2 ± 0.3 | 793 ± 0.3 | 788.8 ± 0.3 | 1222 ± 2 | 1203 ± 2 | 1185 ± 2 | 2.809 ± 0.068 | 2.353 ± 0.057 | 1.99 ± 0.048
x1 = 1 | 806.8 ± 0.3 | 802.7 ± 0.3 | 798.5 ± 0.3 | 1230 ± 2 | 1212 ± 2 | 1194 ± 2 | 3.623 ± 0.086 | 2.995 ± 0.072 | 2.493 ± 0.061

CCC(C)O (centres undefined) [butan-2-ol] + CCCCCCCCCC
[2], x1 = 1
Details | mass density [kg/m3] | speed of sound [m/s] | viscosity [mPa·s]
293.15 K | 806.8 ± 0.3 | 1230 ± 2 | 3.623 ± 0.058
298.15 K | 802.7 ± 0.3 | 1212 ± 2 | 2.995 ± 0.049
303.15 K | 798.5 ± 0.3 | 1194 ± 2 | 2.493 ± 0.042

CCC(C)O (centres undefined) [butan-2-ol] + CCCCCCCCCCCC
[2], x1 = 1
Details | mass density [kg/m3] | speed of sound [m/s] | viscosity [mPa·s]
293.15 K | 806.8 ± 0.3 | 1230 ± 2 | 3.623 ± 0.058
298.15 K | 802.7 ± 0.3 | 1212 ± 2 | 2.995 ± 0.049
303.15 K | 798.5 ± 0.3 | 1194 ± 2 | 2.493 ± 0.042

CCCCCCCCCC [decane]
[1]
Details | mass density [kg/m3] | speed of sound [m/s] | viscosity [mPa·s]
293.15 K | 729.9 ± 0.5 | 1254 ± 2 | 0.911 ± 0.015
298.15 K | 726.1 ± 0.5 | 1235 ± 2 | 0.845 ± 0.014
303.15 K | 722.3 ± 0.5 | 1215 ± 2 | 0.787 ± 0.013
